Experimental data from ChEMBL document CHEMBL1201862, “PubChem BioAssay data set” (2004).
Activity calls are given as the source filed them. No stated cut-off is given here; in the data, actives have a measured IC50 and inactives only a lower limit.

These molecules were tested against Envelope glycoprotein gp160 (Human immunodeficiency virus 1, UniProt Q6QLK5) (assay: inhibitors of HIV fusion peptide binding, primary screen, biochemical, uHTS, fluorescence dequenching (AID 1986)).
Chain of Envelope glycoprotein gp160 (Q6QLK5 whole entry, the tested form may be a part): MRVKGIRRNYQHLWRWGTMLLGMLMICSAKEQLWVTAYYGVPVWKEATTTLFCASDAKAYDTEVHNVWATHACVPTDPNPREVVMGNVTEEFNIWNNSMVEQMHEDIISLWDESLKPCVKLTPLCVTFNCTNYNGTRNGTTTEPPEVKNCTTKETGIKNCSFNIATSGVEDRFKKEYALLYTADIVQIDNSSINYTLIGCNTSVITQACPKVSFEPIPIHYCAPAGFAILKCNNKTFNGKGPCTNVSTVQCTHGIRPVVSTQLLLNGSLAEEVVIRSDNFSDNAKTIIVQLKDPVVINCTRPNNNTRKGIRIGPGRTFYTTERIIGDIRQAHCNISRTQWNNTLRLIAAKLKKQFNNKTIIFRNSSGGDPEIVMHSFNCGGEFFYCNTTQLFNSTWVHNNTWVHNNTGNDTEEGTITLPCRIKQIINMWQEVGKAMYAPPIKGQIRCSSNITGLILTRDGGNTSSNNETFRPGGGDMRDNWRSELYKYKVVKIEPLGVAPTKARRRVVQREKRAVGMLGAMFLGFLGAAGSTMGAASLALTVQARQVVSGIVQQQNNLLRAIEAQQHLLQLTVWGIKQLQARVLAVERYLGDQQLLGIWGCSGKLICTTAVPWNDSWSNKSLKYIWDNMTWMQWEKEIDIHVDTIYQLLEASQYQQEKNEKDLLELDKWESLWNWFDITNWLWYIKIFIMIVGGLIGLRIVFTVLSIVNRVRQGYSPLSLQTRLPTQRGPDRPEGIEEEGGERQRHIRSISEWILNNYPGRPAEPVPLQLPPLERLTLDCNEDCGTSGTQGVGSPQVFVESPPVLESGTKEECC
In the case of `COc1ccc(-c2csc(NC(=O)CSc3nc(C)nc4sc(C(=O)O)c(C)c34)n2)cc1`, the IC50 is reported as 9.37 µM (active). In the case of `CC1=C(C#N)C(=O)NC(=O)/C1=C\c1ccc(-c2cc(C)c(C)cc2[N+](=O)[O-])o1`, the IC50 is reported as 21.8 µM (active). For `COc1ccc(OC)c(/C=C2\SC(=S)N(NS(=O)(=O)c3ccc(C)cc3)C2=O)c1`, the IC50 was 21.4 µM (active).
